US20240238282A1, “METHODS OF TREATING CANCER AND ISCHEMIA DISEASES BY INHIBITION AND INTERVENTION OF ATR PROLYL ISOMERIZATION” (The University of Toledo, priority 2022, published 2024)

Tested on: patient derived PDCL5 cells of metastatic pancreatic cancer
Experiment: Cell killing of patient-derived pancreatic cancer PDCL5 cells by gemcitabine, LB-100 or the combination
Format: cell-based, human
Conditions: single agent: gemcitabine 1.0 uM or LB-100 5 uM, 72 hours (FIG. 3E)
Description: FIGS. 3A-3E: Analysis of the antiapoptotic function of cis-ATR in human cancer via TCGA data mining. […] FIGS. 3F-3G show two patient-derived pancreatic cancer cells, PDCL5 and PDCL15, subjected to MTT assays after treating with the PDAC therapy drug gemcitabine (1.0 μM or 0.3 μM, respectively) and PP2A inhibitor LB-100 (5 μM), alone or in combination, for 72 hours. PANC-1 cells were treated with gemcitabine (1.0 μM) or FOLFIRINOX (5-FU, 10 μM, oxaliplatin, 0.1 μM, leucovorin, 0.15 μM, irinotecan, 0.1 μM), alone or in combination with LB-100 (1.0 μM), for 72 hours before the MTT assay.
To further validate the above observations are not at random, the 5-year survival probability (SP) of different subgroups was calculated for all 17 cancer types, and paired Wilcoxon rank-sum tests were performed. […] The SP difference of DAPK1 expression level is not significant, likely because DAPK indirectly regulates cis-ATR while ATR is a direct substrate of Pin1 and PP2A. […] This remains true even for the analysis regardless of cancer types (FIG. 3D). […]
MTT viability assays were performed according to the manufacturer's specifications (Cayman's MTT Proliferation Assay kit #10009365), and […]. […]

`Nc1ccn([C@@H]2O[C@H](CO)[C@@H](O)C2(F)F)c(=O)n1` [Gemcitabine, gemcitabine] was tested, and the cell death induced was “little cell death”.

For `CN1CCN(C(=O)C2C3CCC(O3)C2C(=O)O)CC1` (centres unmarked) [LB-100], the cell death induced was “little cell death”.
